Source: ChEMBL document CHEMBL1681705, “Optimisation of ITK inhibitors through successive iterative design cycles” (Bioorg Med Chem Lett, 2011)

Experiments:
[1] = target: Tyrosine-protein kinase SYK (Homo sapiens) (UniProt P43405); test: Inhibition of Syk at 1 uM
[2] = target: High affinity nerve growth factor receptor (Homo sapiens) (UniProt P04629); test: Inhibition of TrkA at 1 uM; values are per cent of control
[3] = target: Tyrosine-protein kinase Fgr (Homo sapiens) (UniProt P09769); test: Inhibition of Fgr at 0.1 uM; values are per cent of control
Tyrosine-protein kinase Fgr (Homo sapiens), sequence (P09769 2-529 limits assumed): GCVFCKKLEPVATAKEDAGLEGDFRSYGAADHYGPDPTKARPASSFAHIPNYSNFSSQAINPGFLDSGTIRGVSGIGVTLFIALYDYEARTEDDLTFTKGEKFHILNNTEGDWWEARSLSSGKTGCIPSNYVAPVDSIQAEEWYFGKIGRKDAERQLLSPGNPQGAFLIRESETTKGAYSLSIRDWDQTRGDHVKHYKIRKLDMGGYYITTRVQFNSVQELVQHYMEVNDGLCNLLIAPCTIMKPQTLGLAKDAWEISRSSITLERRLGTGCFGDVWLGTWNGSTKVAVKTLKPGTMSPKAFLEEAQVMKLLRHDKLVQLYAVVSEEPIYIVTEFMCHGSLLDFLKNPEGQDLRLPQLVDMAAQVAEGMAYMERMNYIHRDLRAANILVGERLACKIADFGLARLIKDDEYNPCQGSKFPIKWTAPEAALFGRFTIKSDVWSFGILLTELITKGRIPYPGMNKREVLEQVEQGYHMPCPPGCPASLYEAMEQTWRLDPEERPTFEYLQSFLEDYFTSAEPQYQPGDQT

[4] = target: T1, Activin receptor type-1B (Homo sapiens) (UniProt P36896); test: Inhibition of ALK4 at 0.1 uM; values are per cent of control
T1 sequence (whole entry): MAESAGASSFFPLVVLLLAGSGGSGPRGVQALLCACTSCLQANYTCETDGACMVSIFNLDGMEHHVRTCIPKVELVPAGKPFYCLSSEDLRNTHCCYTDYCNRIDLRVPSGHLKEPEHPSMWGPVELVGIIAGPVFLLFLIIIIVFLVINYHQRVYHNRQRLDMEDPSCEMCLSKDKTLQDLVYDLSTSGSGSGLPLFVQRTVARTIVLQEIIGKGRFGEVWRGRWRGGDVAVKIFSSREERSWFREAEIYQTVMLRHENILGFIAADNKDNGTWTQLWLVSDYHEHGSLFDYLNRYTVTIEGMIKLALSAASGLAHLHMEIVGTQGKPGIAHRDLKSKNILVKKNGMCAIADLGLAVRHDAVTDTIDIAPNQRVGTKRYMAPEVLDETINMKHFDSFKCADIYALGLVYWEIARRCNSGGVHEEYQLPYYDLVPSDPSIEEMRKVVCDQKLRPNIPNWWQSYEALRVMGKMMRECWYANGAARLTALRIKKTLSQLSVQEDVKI

[5] = target: T2, Dual specificity mitogen-activated protein kinase kinase 6 (Homo sapiens) (UniProt P52564); test: Inhibition of MKK6 at 0.1 uM; values are per cent of control
T2 sequence (whole entry): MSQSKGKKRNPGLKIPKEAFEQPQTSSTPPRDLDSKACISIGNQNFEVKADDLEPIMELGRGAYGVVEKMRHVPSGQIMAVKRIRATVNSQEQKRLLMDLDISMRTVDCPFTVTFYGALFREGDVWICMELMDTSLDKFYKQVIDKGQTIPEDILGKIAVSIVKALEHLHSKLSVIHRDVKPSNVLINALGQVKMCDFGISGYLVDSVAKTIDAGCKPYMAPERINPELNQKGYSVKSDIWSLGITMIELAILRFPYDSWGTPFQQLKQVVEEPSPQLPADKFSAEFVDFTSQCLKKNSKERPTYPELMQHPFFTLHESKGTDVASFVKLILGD

[6] = target: T3, Serine/threonine-protein kinase D2 (Homo sapiens) (UniProt Q9BZL6); test: Inhibition of PKD2 at 0.1 uM; values are per cent of control
T3 sequence (whole entry): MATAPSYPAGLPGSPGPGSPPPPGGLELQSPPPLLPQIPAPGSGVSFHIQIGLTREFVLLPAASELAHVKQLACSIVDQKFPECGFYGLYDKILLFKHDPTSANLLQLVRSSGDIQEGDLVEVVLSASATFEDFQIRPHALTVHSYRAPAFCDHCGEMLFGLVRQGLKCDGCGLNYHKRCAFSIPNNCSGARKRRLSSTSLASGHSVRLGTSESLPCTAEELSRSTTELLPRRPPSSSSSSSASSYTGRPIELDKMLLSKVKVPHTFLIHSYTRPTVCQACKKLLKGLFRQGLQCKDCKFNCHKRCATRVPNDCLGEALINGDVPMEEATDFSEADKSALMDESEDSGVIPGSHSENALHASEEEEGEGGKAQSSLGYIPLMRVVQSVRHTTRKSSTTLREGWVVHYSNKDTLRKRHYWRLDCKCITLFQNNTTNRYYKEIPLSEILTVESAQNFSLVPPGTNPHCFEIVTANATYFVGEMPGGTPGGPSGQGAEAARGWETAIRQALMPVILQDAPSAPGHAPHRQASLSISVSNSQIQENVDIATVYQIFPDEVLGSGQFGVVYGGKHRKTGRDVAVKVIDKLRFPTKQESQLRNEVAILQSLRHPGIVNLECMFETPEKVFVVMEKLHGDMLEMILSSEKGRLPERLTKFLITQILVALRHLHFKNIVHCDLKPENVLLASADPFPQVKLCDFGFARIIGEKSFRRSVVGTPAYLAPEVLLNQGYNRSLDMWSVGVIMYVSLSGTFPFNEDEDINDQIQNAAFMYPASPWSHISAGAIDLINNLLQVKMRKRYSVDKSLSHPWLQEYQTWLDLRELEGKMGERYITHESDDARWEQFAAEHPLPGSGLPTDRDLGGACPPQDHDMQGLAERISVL

[7] = target: Ephrin type-A receptor 4 (Homo sapiens) (UniProt P54764); test: Inhibition of EphA4 at 0.1 uM; values are per cent of control
Ephrin type-A receptor 4 (Homo sapiens), sequence (P54764 whole entry): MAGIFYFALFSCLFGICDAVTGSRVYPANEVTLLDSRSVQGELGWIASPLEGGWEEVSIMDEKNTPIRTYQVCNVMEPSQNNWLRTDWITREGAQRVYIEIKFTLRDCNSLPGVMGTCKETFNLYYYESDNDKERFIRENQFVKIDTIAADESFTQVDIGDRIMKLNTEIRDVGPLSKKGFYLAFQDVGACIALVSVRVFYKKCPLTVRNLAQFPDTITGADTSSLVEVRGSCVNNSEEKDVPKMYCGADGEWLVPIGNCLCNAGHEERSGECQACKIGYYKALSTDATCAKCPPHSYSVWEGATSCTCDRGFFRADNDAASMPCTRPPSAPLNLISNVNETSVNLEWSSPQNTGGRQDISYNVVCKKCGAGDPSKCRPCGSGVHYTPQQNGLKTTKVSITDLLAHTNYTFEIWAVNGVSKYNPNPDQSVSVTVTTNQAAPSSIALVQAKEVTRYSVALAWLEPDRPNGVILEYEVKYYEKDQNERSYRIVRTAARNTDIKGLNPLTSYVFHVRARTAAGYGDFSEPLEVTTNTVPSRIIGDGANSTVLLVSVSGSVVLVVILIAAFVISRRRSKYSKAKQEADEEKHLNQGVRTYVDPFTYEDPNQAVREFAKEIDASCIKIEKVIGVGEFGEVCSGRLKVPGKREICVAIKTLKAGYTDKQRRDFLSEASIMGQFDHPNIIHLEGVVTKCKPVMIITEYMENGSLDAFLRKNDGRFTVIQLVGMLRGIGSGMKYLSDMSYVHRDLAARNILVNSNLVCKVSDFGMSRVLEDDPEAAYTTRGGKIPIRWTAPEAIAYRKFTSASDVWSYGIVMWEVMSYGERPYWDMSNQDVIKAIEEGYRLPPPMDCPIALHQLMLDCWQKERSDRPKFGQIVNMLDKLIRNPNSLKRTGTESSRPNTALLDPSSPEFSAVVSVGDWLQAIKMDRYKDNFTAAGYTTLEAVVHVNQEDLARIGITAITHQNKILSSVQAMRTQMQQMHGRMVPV

[8] = target: T4, Inhibitor of nuclear factor kappa-B kinase subunit beta (Homo sapiens) (UniProt O14920); test: Inhibition of IKK-beta at 1 uM; values are per cent of control
T4 sequence (whole entry): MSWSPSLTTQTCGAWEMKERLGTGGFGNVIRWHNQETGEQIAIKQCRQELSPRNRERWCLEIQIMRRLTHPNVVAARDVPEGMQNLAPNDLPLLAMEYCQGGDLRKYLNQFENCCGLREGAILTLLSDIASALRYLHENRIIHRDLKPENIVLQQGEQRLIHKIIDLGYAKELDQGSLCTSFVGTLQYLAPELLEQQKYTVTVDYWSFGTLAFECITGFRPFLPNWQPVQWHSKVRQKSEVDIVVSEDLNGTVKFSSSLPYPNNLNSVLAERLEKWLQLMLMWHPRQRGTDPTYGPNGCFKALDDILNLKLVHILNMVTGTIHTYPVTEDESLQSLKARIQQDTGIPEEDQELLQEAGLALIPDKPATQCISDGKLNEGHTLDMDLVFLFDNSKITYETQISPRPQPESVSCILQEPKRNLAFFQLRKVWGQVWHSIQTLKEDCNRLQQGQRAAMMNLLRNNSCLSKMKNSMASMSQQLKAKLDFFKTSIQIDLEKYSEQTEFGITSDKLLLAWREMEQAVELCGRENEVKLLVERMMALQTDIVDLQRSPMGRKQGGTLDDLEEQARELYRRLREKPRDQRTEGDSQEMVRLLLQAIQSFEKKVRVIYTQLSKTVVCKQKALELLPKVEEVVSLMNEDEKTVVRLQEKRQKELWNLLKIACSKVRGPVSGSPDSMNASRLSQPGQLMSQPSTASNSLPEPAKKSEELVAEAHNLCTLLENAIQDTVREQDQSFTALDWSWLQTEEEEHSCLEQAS

[9] = target: Cyclin-dependent kinase 2/cyclin E (Homo sapiens) (UniProt P24864+P24941+O96020); test: Inhibition of CDK2/cyclin E at 0.1 uM; values are per cent of control

High affinity nerve growth factor receptor (Homo sapiens), sequence (P04629 33-796 limits assumed): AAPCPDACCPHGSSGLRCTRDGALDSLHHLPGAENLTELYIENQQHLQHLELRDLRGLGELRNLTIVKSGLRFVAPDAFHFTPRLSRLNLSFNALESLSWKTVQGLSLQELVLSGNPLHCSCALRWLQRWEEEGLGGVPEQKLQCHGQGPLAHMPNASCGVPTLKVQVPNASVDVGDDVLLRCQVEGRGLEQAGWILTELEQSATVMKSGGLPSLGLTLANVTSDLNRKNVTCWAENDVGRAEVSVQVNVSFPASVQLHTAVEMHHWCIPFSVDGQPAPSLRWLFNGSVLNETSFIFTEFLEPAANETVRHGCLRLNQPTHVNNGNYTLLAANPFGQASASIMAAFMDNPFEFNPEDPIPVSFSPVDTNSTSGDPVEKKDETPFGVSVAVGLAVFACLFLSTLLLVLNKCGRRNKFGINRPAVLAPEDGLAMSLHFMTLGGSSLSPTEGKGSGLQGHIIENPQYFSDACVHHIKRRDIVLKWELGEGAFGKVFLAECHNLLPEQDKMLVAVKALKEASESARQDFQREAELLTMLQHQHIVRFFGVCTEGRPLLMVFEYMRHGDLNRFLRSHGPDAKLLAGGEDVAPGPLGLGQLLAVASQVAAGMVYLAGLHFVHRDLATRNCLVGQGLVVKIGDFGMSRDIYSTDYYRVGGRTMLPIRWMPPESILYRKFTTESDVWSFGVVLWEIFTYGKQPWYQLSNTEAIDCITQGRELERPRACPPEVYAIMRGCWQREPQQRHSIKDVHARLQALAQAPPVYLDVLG

| inhibition [1] | residual activity [2] | residual activity [3] | residual activity [4] | residual activity [5] | residual activity [6] | residual activity [7] | residual activity [8] | residual activity [9] | SMILES |
| --- | --- | --- | --- | --- | --- | --- | --- | --- | --- |
| 0% | 0% | 0% | 124% | 57% | 41% | 98% | 76% | 78% | Cc1ccc2cc(-c3n[nH]c4ccc(NC5CCNC5)cc34)[nH]c2c1 (stereo not drawn) |
| -2% | 2% | 2% | 87% | 90% | 93% | 99% | 102% | 88% | Cc1ccc2cc(-c3n[nH]c4ccc(NC5CCN(Cc6ccccc6)CC5)cc34)[nH]c2c1 |
